# Source: patent US8716297B2, “Chemical entities to be used for Wee1 inhibition for the treatment of cancer” (AbbVie Inc., priority 2011, dated 2014)
# Molecular target: T1, GST-tagged-Wee1 kinase (Homo sapiens, UniProt P30291)
# T1 construct: purchased Carnabio 05-177
# Test: Wee1 time-resolved fluorescence equilibrium binding assay (displacement of Oregon Green-labeled ATP-competitive probe)
# Settings: TR-FRET probe displacement; 2 nM GST-Wee1, 300 nM probe, 1 hour incubation; read-out: Wee-1 binding (Ki nM)
# Method: Wee1 kinase was assayed using a time-resolved fluorescence equilibrium binding assay monitoring displacement of a rapidly reversible Oregon Green-labeled ATP-competitive kinase probe (N-(2-(2-(2-(4-(4-(5-chloro-4-(2-(1-hydroxycyclobutyl)thiazol-5-yl)-1H-pyrrolo[2,3-b]pyridin-2-yl)phenyl)piperazin-1-yl)ethoxy)ethoxy)ethyl)-2′,7′-difluoro-3′,6′-dihydroxy-3-oxo-3H-spiro[isobenzofuran-1,9′-xanthene]-5-carboxamide) by competitive Wee1 inhibitors.
# T1 sequence (P30291 whole entry): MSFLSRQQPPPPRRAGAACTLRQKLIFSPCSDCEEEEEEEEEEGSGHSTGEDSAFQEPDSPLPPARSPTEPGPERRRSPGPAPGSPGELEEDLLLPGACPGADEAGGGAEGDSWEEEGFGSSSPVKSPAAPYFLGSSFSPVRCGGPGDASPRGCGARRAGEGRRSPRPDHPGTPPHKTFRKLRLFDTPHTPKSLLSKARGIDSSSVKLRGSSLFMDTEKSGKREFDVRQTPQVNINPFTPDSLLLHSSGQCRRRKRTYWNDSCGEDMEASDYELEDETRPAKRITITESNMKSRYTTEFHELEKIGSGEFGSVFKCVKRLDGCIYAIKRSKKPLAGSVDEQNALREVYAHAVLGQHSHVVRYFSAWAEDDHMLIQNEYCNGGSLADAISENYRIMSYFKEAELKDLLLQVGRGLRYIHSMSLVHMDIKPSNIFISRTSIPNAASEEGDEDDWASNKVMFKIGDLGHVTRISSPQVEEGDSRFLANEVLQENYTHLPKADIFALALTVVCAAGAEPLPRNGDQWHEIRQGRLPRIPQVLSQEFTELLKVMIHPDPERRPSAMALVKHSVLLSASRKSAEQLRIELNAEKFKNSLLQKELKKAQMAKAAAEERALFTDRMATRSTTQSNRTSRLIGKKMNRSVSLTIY
row,SMILES,Ki [nM]
1,"CCCN1c2cc(-c3ccc(C(=O)NC4CC4)cc3)ccc2-c2nc(Nc3ccc(N4CCN(C)CC4)cc3)ncc2S1(=O)=O [Example 72, N-cyclopropyl-4-(2-{[4-(4-methylpiperazin-1-yl)phenyl]amino}-5,5-dioxido-6-propyl-6H-pyrimido[5,4-c][2,1]benzothiazin-8-yl)benzamide]",7
2,"CCCN1c2cc(-c3cnc(N)nc3)ccc2-c2nc(Nc3ccc(N4CCN(C)CC4)cc3)ncc2S1(=O)=O [Example 73, 8-(2-aminopyrimidin-5-yl)-N-[4-(4-methylpiperazin-1-yl)phenyl]-6-propyl-6H-pyrimido[5,4-c][2,1]benzothiazin-2-amine 5,5-dioxide]",3
3,"CCCN1c2cc(-c3ccsc3)ccc2-c2nc(Nc3ccc(N4CCN(C)CC4)cc3)ncc2S1(=O)=O [Example 74, N-[4-(4-methylpiperazin-1-yl)phenyl]-6-propyl-8-(3-thienyl)-6H-pyrimido[5,4-c][2,1]benzothiazin-2-amine 5,5-dioxide]",20
4,"CCCN1c2cc(-c3ccc(O)cc3)ccc2-c2nc(Nc3ccc(N4CCN(C)CC4)cc3)ncc2S1(=O)=O [Example 75, 4-(2-{[4-(4-methylpiperazin-1-yl)phenyl]amino}-5,5-dioxido-6-propyl-6H-pyrimido[5,4-c][2,1]benzothiazin-8-yl)phenol]",14
5,"CCCN1c2cc(-c3ccncc3)ccc2-c2nc(Nc3ccc(N4CCN(C)CC4)cc3)ncc2S1(=O)=O [Example 76, N-[4-(4-methylpiperazin-1-yl)phenyl]-6-propyl-8-(pyridin-4-yl)-6H-pyrimido[5,4-c][2,1]benzothiazin-2-amine 5,5-dioxide]",5
6,"CCCN1c2cc(-c3c[nH]c4ncccc34)ccc2-c2nc(Nc3ccc(N4CCN(C)CC4)cc3)ncc2S1(=O)=O [Example 77, N-[4-(4-methylpiperazin-1-yl)phenyl]-6-propyl-8-(1H-pyrrolo[2,3-b]pyridin-3-yl)-6H-pyrimido[5,4-c][2,1]benzothiazin-2-amine 5,5-dioxide]",57
7,"CCCN1c2cc(C(=O)OC)ccc2-c2nc(Nc3ccc(N4CCN(C)CC4)cc3)ncc2S1(=O)=O [Example 78, methyl 2-{[4-(4-methylpiperazin-1-yl)phenyl]amino}-6-propyl-6H-pyrimido[5,4-c][2,1]benzothiazine-8-carboxylate 5,5-dioxide]",6
8,"CCCN1c2cc(C(N)=O)ccc2-c2nc(Nc3ccc(N4CCN(C)CC4)cc3)ncc2S1(=O)=O [Example 79, 2-{[4-(4-methylpiperazin-1-yl)phenyl]amino}-6-propyl-6H-pyrimido[5,4-c][2,1]benzothiazine-8-carboxamide 5,5-dioxide]",6
9,"CCCN1c2cc(C(C)(C)O)ccc2-c2nc(Nc3ccc(N4CCN(C)CC4)cc3)ncc2S1(=O)=O [Example 80, 2-(2-{[4-(4-methylpiperazin-1-yl)phenyl]amino}-5,5-dioxido-6-propyl-6H-pyrimido[5,4-c][2,1]benzothiazin-8-yl)propan-2-ol]",14
10,"CCCN1c2cc(C(=O)NC3CCCCC3)ccc2-c2nc(Nc3ccc(N4CCN(C)CC4)cc3)ncc2S1(=O)=O [Example 81, N-cyclohexyl-2-{[4-(4-methylpiperazin-1-yl)phenyl]amino}-6-propyl-6H-pyrimido[5,4-c][2,1]benzothiazine-8-carboxamide 5,5-dioxide]",13
11,"CCCN1c2cc(C(=O)NC)ccc2-c2nc(Nc3ccc(N4CCN(C)CC4)cc3)ncc2S1(=O)=O [Example 82, N-methyl-2-{[4-(4-methylpiperazin-1-yl)phenyl]amino}-6-propyl-6H-pyrimido[5,4-c][2,1]benzothiazine-8-carboxamide 5,5-dioxide]",10
12,"CCCN1c2cc(C(=O)N(C)C)ccc2-c2nc(Nc3ccc(N4CCN(C)CC4)cc3)ncc2S1(=O)=O [Example 83, N,N-dimethyl-2-{[4-(4-methylpiperazin-1-yl)phenyl]amino}-6-propyl-6H-pyrimido[5,4-c][2,1]benzothiazine-8-carboxamide 5,5-dioxide]",23
